From publication PMC3183052, “Immunoprotectivity of HLA-A2 CTL Peptides Derived from Respiratory Syncytial Virus Fusion Protein in HLA-A2 Transgenic Mouse” (PLoS ONE, 2011)

What was measured:
[1] = tested on: splenocytes from HLA-A*0201 transgenic C57BL/6 mice; experiment: IFN-γ ELISPOT of splenocytes restimulated with peptide; format: cell-based, mouse; conditions: for IFN-γ ELISPOT, RSV: splenocytes of HLA-Tg B6 mice primed and boosted i.n. with 10^4 pfu RSV-B1; for IFN-γ ELISPOT, RSV / IFN-γ ELISPOT, rAd-F0: restimulated with 2 µg peptide, representative of two experiments, five mice per group; for IFN-γ ELISPOT, rAd-F0: splenocytes of HLA-Tg B6 mice primed and boosted i.n. with 10^7 pfu rAd-F0; for IFN-γ level in restimulated splenocytes (ELISPOT, text grading): splenocytes of rAd-F0- or RSV B1-primed and boosted HLA-Tg B6 mice, high = over 100 spots, moderate = over 50 spots
Procedure: (§1) To screen the immunodominance of epitopic peptide in the induction of RSV-F specific Th1/Th2 expression, HLA-A*0201 transgenic C57BL/6 mice were anesthetized with isoflurane and immunized with 1×10^7 pfu/50 µL of rAd-F0 or rAd-LacZ or 1×10^4 live RSV B1 via the intranasal (i.n.) route. Twenty days later, the mice were given booster immunization i.n. with the same dose. After 10 days of boost, mice were sacrificed and splenocytes were isolated for the cytokine ELISPOT assay. For peptide-based vaccination, transgenic mice were immunized subcutaneously (s.c.) with 50 µg of the individual synthetic peptides emulsified in 25 µL of incomplete Freund's adjuvant (IFA) (Sigma-Aldrich) and then boosted after 10 days s.c. with the same dose of the respective peptides mixed with IFA. Mice were sacrificed 7 days after the booster and splenocytes were isolated for in vitro peptide-restimulation. For challenge studies, 10^7 pfu of live RSV-B1 was administered i.n. seven days after the booster immunization with peptide vaccines. Mice were sacrificed on day 4 post-challenge and the lung tissues were collected and subjected to further analysis by flow cytometry, ELISA, CTL assay and immunohistochemistry. Mice body weight was monitored daily.
(§2) […] RBC-free splenocyte suspensions prepared from the individual mice were seeded in individual wells of 96-well filtration plates (Millipore) precoated with capturing monoclonal antibodies for murine IL-2, IL-4 or IFN-γ (0.5 µg/ well) (eBioscience) and blocked with conditioned medium (CM) for 1 hour at room temperature. The splenocytes were added with the individual RSV F 9-mer synthetic peptides (2 µg each) or GLC-9 dissolved in CM (100 µL). The splenocytes added with Con A (10 µg/mL) were used as positive control. Unstimulated splenocytes were used as negative control. The plates were kept in a 37°C incubator equilibrated with 5% CO2 for 48 hours. The individual wells of the ELISPOT plates were washed three times with washing buffer (0.05% tween20 in PBS, PBS-T), and then 0.2 µg of the corresponding biotinylated detection monoclonal antibodies specific for IL-2, IL-4 and IFN-γ were added to detect the respective cytokines. After 2 hours of incubation at room temperature, the plates were washed and 100 µl of streptavidin-alkaline phosphatase (1∶ 250 dilution) was added to the individual wells, and the plates were incubated at room temperature for 45 minutes. Finally, the plates were washed four times with the wash buffer, and 100 µl of AEC (3-amine-9-ethylcarbazole, Sigma-Aldrich) substrate was added to each well and allowed to react for 30 minutes at room temperature in the dark. The plates were then washed with water, air-dried overnight, and the spots per well were scored using the immunospot counting reader (C.T.L. IMMUNOSPOT, CELLULAR TECHNOLOGY LTD). Results were expressed as the number of cytokine-secreting cells per 5×10^5 splenocytes seeded in the initial culture.
(§3) Figure 1 Induction of IFN-γ and IL-2 in splenocytes from RSV F peptide immunized HLA-A*0201 transgenic mice upon secondary recall. Splenocytes harvested on day 30 from HLA-A-Tg B6 mice primed and boosted at 20 days interval intranasally with 10^7 pfu of rAd-F0 (□) or 10^4 pfu of RSV-B1 (▪)were restimulated with 2 µg of the individual RSV F peptide or 10 µg/ml Con A for 5 days in the presence of murine IL-2 . After stimulation, 5×10^5 splenocytes were seeded to anti-IFN-γ (A) or anti-IL-2 (B) capture antibody coated ELISPOT plates for 2 days for ELISPOT assay as described in Materials and Methods. Cytokine-positive immunospots were developed and the results are expressed as the number of immunospots +/−2 standard deviations for each experimental group. Data is representative of results derived from two independent experiments, each with five mice per group.

HLA-A*0201 = molecular target: T1, HLA-A*0201 (Homo sapiens, UniProt P04439, D140Y/D185E/D98H/E176V/E277Q/G131W/G231S/I119V/I121R/I166T/I218V/L300P/L318F/N151K/N90K/P208A/P217A/Q86G/Q94H/R138H/R169H/T345S); experiment: T2 cell-stabilization assay (T2-binding); conditions: for T2-binding Ratio of MFI: T2 cells 5×10^5, peptide 50 µg/mL + β2-microglobulin 5 µg/mL, 28°C 16–18 h, then brefeldin A 10 µg/mL 37°C 3 h, FITC anti-HLA-A2, flow cytometry, MFI relative to negative control HCV C55-74 (set as 1); for binding affinity, MFI higher than the baseline: T2 cell-based binding assay, baseline = negative control HCV C55-74, called modest binding affinity
T1 construct: Human T2 cells (purchased from the American Type Culture Collection, ATCC) (ATCC No. CRL-1992) expressing the HLA-A*0201 gene; endogenous in cells; host or cells: human T2 cells (ATCC CRL-1992)
Procedure: T2 cells (5×10^5) cultured in 96-well U-bottom plates were incubated with the individual 9-mer synthetic peptides (50 µg/mL) and β2-microglobulin (5 µg/mL; Sigma-Aldrich) at 28°C for 16–18 hours. Subsequently, brefeldin A (10 µg/mL) was added and the cells were incubated at 37°C for another 3 hours, then washed and stained with fluorescence isothiocyanate (FITC)-conjugated mouse anti-human HLA-A2 antibody (SeroTec). Peptide-loaded T2 cells were acquired and analyzed on the FACScan flow cytometer using CellQuest software (Becton Dickinson). GLC-9 peptide was used as positive control (PC). The mean fluorescence intensity (MFI) represents the binding affinity of each peptide compared to MFI (set as MFI = 1) obtained from negative control (NC), which is T2 cells loaded with HCV peptide C55-74.
Twenty-five 9-mer synthetic peptides derived from the RSV F glycoprotein sequence presumed to encompass HLA-A*0201 binding motifs were synthesized (Table 1). Each was tested for its ability to bind HLA-A*0201 molecules by T2 cell-based binding assay (data not shown). The relative mean fluorescence intensity (MFI) obtained from the positive control (PC) peptide derived from Epstein-Barr virus capsid protein (GLC-9, a previously defined HLA-A*0201-restricted CTL epitope) was twofold (MFI = 1.96) compared to the baseline MFI = 1 obtained from the negative control (NC) treated with an unrelated peptide HCV C55-74 (a C57BL/6-specific CD4 epitope). […] The remaining peptides had no detectable binding to the HLA-A*0201 molecules. Apparently, the different MFIs generated by binding of RSV F-derived peptides to HLA-A*0201 reflects on the binding specificity of different peptides to a given HLA molecule.

[2] = tested on: splenocytes from HLA-A*0201 transgenic C57BL/6 mice; experiment: IL-2 ELISPOT of splenocytes restimulated with peptide; format: cell-based, mouse; conditions: for IL-2 ELISPOT, RSV: splenocytes of HLA-Tg B6 mice primed and boosted i.n. with 10^4 pfu RSV-B1; for IL-2 ELISPOT, RSV / IL-2 ELISPOT, rAd-F0: restimulated with 2 µg peptide, representative of two experiments, five mice per group; for IL-2 ELISPOT, rAd-F0: splenocytes of HLA-Tg B6 mice primed and boosted i.n. with 10^7 pfu rAd-F0; for IL-2 level in restimulated splenocytes (ELISPOT, text grading): splenocytes of rAd-F0- or RSV B1-primed and boosted HLA-Tg B6 mice, high = over 100 spots, moderate = over 50 spots
Procedure: as §1, §2, §3

Substance	IFN-γ ELISPOT, RSV [1]	IFN-γ ELISPOT, rAd-F0 [1]	T2-binding Ratio of MFI (HLA-A*0201)	IL-2 ELISPOT, RSV [2]	IL-2 ELISPOT, rAd-F0 [2]	IL-2 level in restimulated splenocytes (ELISPOT, text grading) [2]	IFN-γ level in restimulated splenocytes (ELISPOT, text grading) [1]	binding affinity, MFI higher than the baseline (HLA-A*0201) [%]
15: HLA-A*0201-restricted 9-mer synthetic peptide from F protein of RSV-B1 strain (KLMSNNVQI) [compound 15]	0 cytokine-secreting cells per 5×10^5 splenocytes	39 cytokine-secreting cells per 5×10^5 splenocytes	1.51	59.5 cytokine-secreting cells per 5×10^5 splenocytes	37 cytokine-secreting cells per 5×10^5 splenocytes	over 50 spots		
16: HLA-A*0201-restricted 9-mer synthetic peptide from F protein of RSV-B1 strain (LMSNNVQIV) [compound 16]	28 cytokine-secreting cells per 5×10^5 splenocytes	54 cytokine-secreting cells per 5×10^5 splenocytes	1.60	50.5 cytokine-secreting cells per 5×10^5 splenocytes	52 cytokine-secreting cells per 5×10^5 splenocytes	over 50 spots	over 50 spots	
18: HLA-A*0201-restricted 9-mer synthetic peptide from F protein of RSV-B1 strain (SVGNTLYYV) [compound 18]	92.5 cytokine-secreting cells per 5×10^5 splenocytes	115 cytokine-secreting cells per 5×10^5 splenocytes	1.29	42 cytokine-secreting cells per 5×10^5 splenocytes	0 cytokine-secreting cells per 5×10^5 splenocytes		over 100 spots	~10
19: HLA-A*0201-restricted 9-mer synthetic peptide from F protein of RSV-B1 strain (KINQSLAFI) [compound 19]	7.5 cytokine-secreting cells per 5×10^5 splenocytes	200 cytokine-secreting cells per 5×10^5 splenocytes	1.08	36.5 cytokine-secreting cells per 5×10^5 splenocytes	52 cytokine-secreting cells per 5×10^5 splenocytes	over 50 spots	over 100 spots	
20: HLA-A*0201-restricted 9-mer synthetic peptide from F protein of RSV-B1 strain (IMITTIIIV) [compound 20]	9 cytokine-secreting cells per 5×10^5 splenocytes	200 cytokine-secreting cells per 5×10^5 splenocytes	1.03	24.5 cytokine-secreting cells per 5×10^5 splenocytes	32 cytokine-secreting cells per 5×10^5 splenocytes		over 100 spots	
21: HLA-A*0201-restricted 9-mer synthetic peptide from F protein of RSV-B1 strain (IIIVIIVIL) [compound 21]	80 cytokine-secreting cells per 5×10^5 splenocytes	16.5 cytokine-secreting cells per 5×10^5 splenocytes	0.88	21 cytokine-secreting cells per 5×10^5 splenocytes	2.5 cytokine-secreting cells per 5×10^5 splenocytes		over 50 spots	
22: HLA-A*0201-restricted 9-mer synthetic peptide from F protein of RSV-B1 strain (VIIVILLSL) [compound 22]	49 cytokine-secreting cells per 5×10^5 splenocytes	88.5 cytokine-secreting cells per 5×10^5 splenocytes	0.97	55 cytokine-secreting cells per 5×10^5 splenocytes	21.5 cytokine-secreting cells per 5×10^5 splenocytes	over 50 spots	over 50 spots	
24: HLA-A*0201-restricted 9-mer synthetic peptide from F protein of RSV-B1 strain (LLSLIAVGL) [compound 24]	0 cytokine-secreting cells per 5×10^5 splenocytes	84.5 cytokine-secreting cells per 5×10^5 splenocytes	1.71	42 cytokine-secreting cells per 5×10^5 splenocytes	5 cytokine-secreting cells per 5×10^5 splenocytes		over 50 spots	
25: HLA-A*0201-restricted 9-mer synthetic peptide from F protein of RSV-B1 strain (SLIAVGLLL) [compound 25]	96 cytokine-secreting cells per 5×10^5 splenocytes	41 cytokine-secreting cells per 5×10^5 splenocytes	1.42	44.5 cytokine-secreting cells per 5×10^5 splenocytes	31 cytokine-secreting cells per 5×10^5 splenocytes		over 50 spots	~10
